The subject of assay [1] is blood glucose level. In words: Hypoglycemic activity in normal fed rats (Table 2). The class given is in vivo, male Sprague Dawley rats. The settings on record: Rattus norvegicus, 200 mg/kg, oral. As to the method:
The procedure used in this test system is described below.
The desired dose level of each test formulation was administered to four rats by oral […] at the beginning of the experiment. Blood glucose levels were determined immediately before the first dose and at 3 and 5 hours thereafter by an enzymatic procedure employing glucose oxidase and peroxidase coupled with a chromogenic oxygen acceptor. A mean was taken of the 4 values obtained before the first dose and at the 3 and 5 hour intervals.

The test system of assay [2] is blood glucose level. Nature of the assay: Hypoglycemic activity in obese diabetic mice (Table 1). The conditions noted are these: for response vs control in vivo at 50 mg/kg: Mus musculus, ip, intraperitoneal. The class given is in vivo, male viable yellow obese-diabetic mice. As to the method:
The hypoglycemic activity of the compounds of the present invention was determined by testing the efficacy of the compounds in vivo in male viable yellow obese-diabetic mice. The test procedure is described in detail below.
Test formulations were prepared by dissolving the test compound in a saline solution containing 2% Emulphor (a polyoxyethylated vegetable oil surfactant from GAP Corp.) to provide the dose level desired. Each test formulation was administered to six viable yellow obese-diabetic mice intraperitoneally at the beginning of the experiment. Blood glucose levels were determined immediately before the first dose and at 2 and 4 hours thereafter using glucose oxidase. A mean was taken of the 6 values obtained before the first dose and at the 2 and 4 hour intervals. In Table 1, Column 1 provides the example number of the test compound, Column 2 provides the dose level of compound tested, and Columns 3 and 4 provide a measurement of the test animal's blood glucose level 2 and 4 hours after test compound administration, respectively, as a percentage of the test animal' s pre-administration blood glucose level.

In another assay the target is T1, Human liver cathepsin D (Homo sapiens, UniProt P07339).
T1 construct: purchased Athens Research and Technology, Athens, Ga; host or cells: human liver
T1 sequence (P07339 169-412 limits assumed): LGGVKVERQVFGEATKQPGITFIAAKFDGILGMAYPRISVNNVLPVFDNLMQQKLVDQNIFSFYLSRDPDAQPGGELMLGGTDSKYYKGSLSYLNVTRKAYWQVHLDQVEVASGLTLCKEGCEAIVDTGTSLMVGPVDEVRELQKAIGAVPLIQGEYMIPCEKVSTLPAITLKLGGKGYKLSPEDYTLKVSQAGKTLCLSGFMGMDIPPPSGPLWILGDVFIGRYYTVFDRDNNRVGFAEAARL
T1 sequence (P07339 65-161 limits assumed): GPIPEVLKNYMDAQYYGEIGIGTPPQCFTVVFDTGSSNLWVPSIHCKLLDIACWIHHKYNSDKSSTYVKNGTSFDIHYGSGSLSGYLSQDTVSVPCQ
Nature of the assay: Cathepsin D inhibition, fluorometric assay (Tables 5 and 6). The assay is classed as biochemical. The settings on record: for inhibition at 4.15 µg/mL (stock): Compound Stock Concentration 4.15 μg/ml; for inhibition at 10 µg/mL (stock): Compound Stock Concentration 10.0 μg/ml; for ability to inhibit cathepsin D: compared to structurally similar compounds known in the art, in words; for inhibition at 8.3 µg/mL (stock): Compound Stock Concentration 8.3 μg/ml. Here is the method:
Human liver cathepsin D (Athens Research and Technology, Athens, Ga.) was diluted in assay buffer, 200 mM NaOAc, pH 4.5, 150 mM NaCl to 500 ng/mL and then 100 μL of this cathepsin D solution was added to each well of a 96 well plate with the exception of control wells which received just 100 μL of assay buffer. […] Blank and enzyme control wells each received 5 μL of the DMSO vehicle.
After incubation at 37° C. for 30 minutes, cathepsin D activity was terminated by the addition of 100 μL per well of 400 mU/mL microsomal leucine aminopeptidase (EC 3.4.11.2, Sigma, St. Louis, Mo.) in 1M Tris-HCl, pH 8.0.
Following a two hour incubation at 37° C., to allow the aminopeptidase to release the fluorophore, 7-amido-4-methylcoumarin (AMC) from the products of cathepsin D cleavage, the plates were again analyzed in the fluorometer. In order to check for potential false positives, i.e., inhibitors of microsomal leucine aminopeptidase, residual aminopeptidase activity was monitored directly in each well by the addition of 20 μL/well of 2.5 mM Leu-pNA (Bachem Biosciences, Philadelphia, Pa.) in 10% DMSO.

Where [3] appears, read: 3 hrs, read-out: Percent of Initial Blood Glucose Level After 3 hrs.
The mark [4] stands for this setting: 5 hrs, read-out: Percent of Initial Blood Glucose Level After 5 hrs.
Where [5] appears, read: 2 h, 2 hrs, read-out: Percent of Initial Blood Glucose Level After 2 hrs.
[6] abbreviates: 4 h, 4 hrs, read-out: Percent of Initial Blood Glucose Level After 4 hrs.

Where two headings read alike, the source gives them in different places.

Consider `Cc1cc(C=C2SC(=S)NC2=O)cc(C)c1O` [Example 62, 5-[(3,5-dimethyl-4-hydroxyphenyl)methylene]-2-thioxo-4-thiazolidinone], for which the response vs control in vivo at 200 mg/kg in the assay with blood glucose level [1] (setting [3]) was 78%; in the assay on blood glucose level [1] (setting [4]), 53%.

For `O=C1NC(=S)SC1=Cc1ccc2ccccc2c1` [Example 35, 5-[(2-naphthalenyl)methylene)-2-thioxo-4-thiazolidinone], the response vs control in vivo at 50 mg/kg in the assay on blood glucose level [2] (setting [5]) is 83 ± 5%. In addition, in the assay with blood glucose level [2] (setting [6]), the response vs control in vivo at 50 mg/kg is 85 ± 6%. For the same compound, at Human liver cathepsin D, half-maximal inhibition (IC50) required 8.9 µM and the inhibition – broadly, the relative decrease from the control value, in per cent – at 4.15 µg/mL (stock) worked out at 57%.

For the compound `CS(=O)(=O)Nc1cccc(C=C2SC(=S)NC2=O)c1` [Example 1, 5-[(3-methanesulfonamidophenyl)methylene]-2-thioxo-4-thiazolidinone], the response vs control in vivo at 50 mg/kg with blood glucose level [2] (setting [5]) was 82 ± 5%; in the assay with blood glucose level [2] (setting [6]), 75 ± 2%. On Human liver cathepsin D, this compound showed an inhibition at 10 µg/mL (stock) of 36%.

As for `COc1cccc(C=C2SC(=S)NC2=O)c1OC` [Example 24, 5-[(2,3-dimethoxyphenyl)methylene]-2-thioxo-4-thiazolidinone], the response vs control in vivo at 200 mg/kg with blood glucose level [1] (setting [3]) and in the assay with blood glucose level [1] (setting [4]) was 100% in each case. The results for the response vs control in vivo at 50 mg/kg in the assay on blood glucose level [2] (setting [5]) and with blood glucose level [2] (setting [6]) were 78 ± 4% and 80 ± 5%, respectively.

Regarding `O=C1NC(=S)SC1=C(c1ccccc1)c1ccccc1` [Example 4, 5-(diphenylmethylene)-2-thioxo-4-thiazolidinone], the response vs control in vivo at 50 mg/kg in the assay with blood glucose level [2] (setting [5]) worked out at 91 ± 4%; in the assay on blood glucose level [2] (setting [6]) it was 72 ± 7%. The same compound gave an inhibition at 10 µg/mL (stock) against Human liver cathepsin D of 50%.

Regarding `CCCCCOc1ccc(CC2SCNC2=O)cc1OC` (centres unmarked) [Example 67, 5-[(3-methoxy-4-pentoxyphenyl)methyl]-4-thiazolidinone], the response vs control in vivo at 200 mg/kg came out at 92% with blood glucose level [1] (setting [3]) and 88% in the assay on blood glucose level [1] (setting [4]).

On to `CC(C)(C)c1cc(C=C2SC(=S)NC2=O)cc(C(C)(C)C)c1O` [Example 28, 5-[[3,5-bis(1,1-dimethylethyl)-4-hydroxyphenyl]methylene]-2-thioxo-4-thiazolidinone], for which the response vs control in vivo at 50 mg/kg with blood glucose level [2] (setting [5]) is 83 ± 9%; with blood glucose level [2] (setting [6]), 79 ± 7%. Besides, half-maximal inhibition against Human liver cathepsin D (IC50) required 3.1 µM.

For `COc1ccc(C=C2SC(=S)NC2=O)cc1` [Example 18, 5-[(4-methoxyphenyl)methylene]-2-thioxo-4-thiazolidinone], the values for the response vs control in vivo at 50 mg/kg in the assay with blood glucose level [2] (setting [5]) and in the assay on blood glucose level [2] (setting [6]) were 89 ± 4% and 88 ± 5%, respectively. The inhibition at 10 µg/mL (stock) at Human liver cathepsin D was determined as 38%.

For the compound `O=C1NC(=S)SC1=Cc1cc(Cl)c(O)c(Cl)c1` [Example 55, 5-[(3,5-dichloro-4-hydroxyphenyl)methylene]-2-thioxo-4-thiazolidinone], the response vs control in vivo at 50 mg/kg with blood glucose level [2] (setting [5]) is 81 ± 3%; with blood glucose level [2] (setting [6]) it was 75 ± 3%. The same compound showed an inhibition at 4.15 µg/mL (stock) against Human liver cathepsin D of 90%. At Human liver cathepsin D, the “ability to inhibit cathepsin D” value is recorded as “surprising ability to inhibit cathepsin D levels”.

With `CCCCCOc1ccc(C=C2SC(=S)N(C)C2=O)cc1OC` [Example 65, 5-[(3-methoxy-4-pentoxyphenyl)methylene]-2-thioxo-3-methyl-4-thiazolidinone], the figures for the response vs control in vivo at 200 mg/kg with blood glucose level [1] (setting [3]) and in the assay with blood glucose level [1] (setting [4]) were 100% and 91%, respectively.

In the case of `COc1ccc(C(=C2SC(=S)NC2=O)c2ccccc2)cc1` [Example 21, 5-[(4-methoxyphenyl)phenylmethylene]-2-thioxo-4-thiazolidinone], the response vs control in vivo at 50 mg/kg with blood glucose level [2] (setting [5]) worked out at 99 ± 4%; with blood glucose level [2] (setting [6]), 81 ± 6%. This compound gave an inhibition at 4.15 µg/mL (stock) at Human liver cathepsin D of 40%.

With `CCCOc1cc(C=C2SC(=S)NC2=O)ccc1OCC` [Example 50, 5-[(3-propoxy-4-ethoxyphenyl)methylene]-2-thioxo-4-thiazolidinone], the response vs control in vivo at 50 mg/kg came out at 75 ± 5% with blood glucose level [2] (setting [5]) and 69 ± 5% in the assay on blood glucose level [2] (setting [6]). Also, the “ability to lower blood glucose levels in mammals” value in the assay with blood glucose level [2] (compared to structurally similar compounds known in the art, in words) is recorded as “surprising ability to lower blood glucose levels in mammals”. On Human liver cathepsin D, the inhibition at 4.15 µg/mL (stock) is 40%.

On Human liver cathepsin D, `CCCCOc1ccc(C=C2SC(=S)N(N(C)C)C2=O)cc1OCCCC` [Example 94, 5-[(3,4-dibutoxyphenyl)methylene]-2-thioxo-3-dimethylamino-4-thiazolidinone] yielded an inhibition at 4.15 µg/mL (stock) of 48%.

At Human liver cathepsin D, `CS(=O)(=O)Nc1cccc(C=C2SC(=S)N(CC(=O)O)C2=O)c1` [Example 86, 5-[(3-methanesulfonamidophenyl)methylene]-4-oxo-2-thioxo-3-thiazolidine acetic acid] had an inhibition at 8.3 µg/mL (stock) of 42%.

As to `CCOc1cc(C=C2SC(=S)NC2=O)cc(CSc2ccccc2)c1O` [Example 72], the IC50 (usually the concentration that gives 50% inhibition) at Human liver cathepsin D (50% inhibition of cathepsin D) was found to be 1.7 µM. Besides, at Human liver cathepsin D, the inhibition at 4.15 µg/mL (stock) was 88% and the inhibition at 8.3 µg/mL (stock) came out at 96%.

Turning to `CN1C(=O)C(=Cc2cc(C(C)(C)C)c(O)c(C(C)(C)C)c2)SC1=S` [Example 85, 5-[[3,5-bis(1,1-dimethylethyl)-4-hydroxyphenyl]methylene]-2-thioxo-3-methyl-4-thiazolidinone], the IC50 at Human liver cathepsin D worked out at 14.3 µM.

In the case of `O=C1NC(=S)SC1=Cc1ccc(O)cc1` [Example 8, 5-[(4-hydroxyphenyl)methylene]-2-thioxo-4-thiazolidinone], the results for the response vs control in vivo at 50 mg/kg in the assay on blood glucose level [2] (setting [5]) and with blood glucose level [2] (setting [6]) were 94 ± 4% and 84 ± 6%, respectively. At Human liver cathepsin D, the inhibition at 10 µg/mL (stock) stood at 64%.

In turn, `CCCCCCCOc1ccc(C=C2SC(=S)N(N(C)C)C2=O)cc1OCCCCCCC` [Example 93, 5-[(3,4-diheptoxyphenyl)methylene]-2-thioxo-3-dimethylamino-4-thiazolidinone] returned an IC50 against Human liver cathepsin D of 7.5 µM.

As to `CCOc1cc(C=C2SC(=S)N(CC(=O)O)C2=O)cc(CSc2ccccc2)c1O` [Example 74, 5-[[3-ethoxy-4-hydroxy-5-(methylthiophenyl)phenyl]methylene]-4-oxo-2-thioxo-3-thiazolidine acetic acid], at Human liver cathepsin D (50% inhibition of cathepsin D), half-maximal inhibition (IC50) required 5.8 µM. Moreover, at Human liver cathepsin D, the inhibition at 8.3 µg/mL (stock) came to 95% and the “ability to inhibit cathepsin D” value was “surprising ability to inhibit cathepsin D levels”.

`CCCCCOc1ccc(C=C2SCNC2=O)cc1OC` [Example 66, 5-[(3-methoxy-4-pentoxyphenyl)methylene]-4-thiazolidinone]: the figures for the response vs control in vivo at 200 mg/kg in the assay with blood glucose level [1] (setting [3]) and in the assay on blood glucose level [1] (setting [4]) were 100% and 86%, respectively.

Take `CCCCCCCOc1ccc(C=C2SC(=S)N(N(C)C)C2=O)cc1` [Example 83, 5-[(4-heptoxyphenyl)methylene]-2-thioxo-3-dimethylamino-4-thiazolidinone]: on Human liver cathepsin D, the inhibition at 4.15 µg/mL (stock) was determined as 47%.
